Source: ChEMBL document CHEMBL1201862, “PubChem BioAssay data set” (2004)
Active and inactive are the calls of the source.

Tests used:
Protein Tat = Protein Tat (Human immunodeficiency virus type 1 group M subtype B (isolate HXB2)(HIV-1), UniProt P04608); type: functional;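 also: tat binding to TAR RNA read out by fluorescence polarization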
[1] = biological target: T1, RNA-binding protein pos-1 (Caenorhabditis elegans, UniProt G5EF15); experiment: inhibitors of POS-1/mex-3 RNA binding, dose response, biochemical, fluorescence polarization (AID 1964);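 also: purified POS-1 fused to maltose binding protein made in E. coli; potency of compounds blocking POS-1 binding to fluorescent RNA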
T1 sequence (G5EF15 whole entry): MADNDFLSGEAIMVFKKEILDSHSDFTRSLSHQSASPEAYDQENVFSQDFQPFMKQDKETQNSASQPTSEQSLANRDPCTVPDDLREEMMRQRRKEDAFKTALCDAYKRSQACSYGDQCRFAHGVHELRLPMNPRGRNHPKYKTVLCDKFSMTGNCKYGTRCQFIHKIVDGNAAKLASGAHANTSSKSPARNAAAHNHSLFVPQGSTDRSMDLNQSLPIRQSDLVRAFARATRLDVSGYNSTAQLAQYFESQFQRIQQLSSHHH

[2] = biological target: T2, Histone-lysine N-methyltransferase NSD2 (Homo sapiens, UniProt O96028); type: biochemical
T2 sequence (O96028 whole entry): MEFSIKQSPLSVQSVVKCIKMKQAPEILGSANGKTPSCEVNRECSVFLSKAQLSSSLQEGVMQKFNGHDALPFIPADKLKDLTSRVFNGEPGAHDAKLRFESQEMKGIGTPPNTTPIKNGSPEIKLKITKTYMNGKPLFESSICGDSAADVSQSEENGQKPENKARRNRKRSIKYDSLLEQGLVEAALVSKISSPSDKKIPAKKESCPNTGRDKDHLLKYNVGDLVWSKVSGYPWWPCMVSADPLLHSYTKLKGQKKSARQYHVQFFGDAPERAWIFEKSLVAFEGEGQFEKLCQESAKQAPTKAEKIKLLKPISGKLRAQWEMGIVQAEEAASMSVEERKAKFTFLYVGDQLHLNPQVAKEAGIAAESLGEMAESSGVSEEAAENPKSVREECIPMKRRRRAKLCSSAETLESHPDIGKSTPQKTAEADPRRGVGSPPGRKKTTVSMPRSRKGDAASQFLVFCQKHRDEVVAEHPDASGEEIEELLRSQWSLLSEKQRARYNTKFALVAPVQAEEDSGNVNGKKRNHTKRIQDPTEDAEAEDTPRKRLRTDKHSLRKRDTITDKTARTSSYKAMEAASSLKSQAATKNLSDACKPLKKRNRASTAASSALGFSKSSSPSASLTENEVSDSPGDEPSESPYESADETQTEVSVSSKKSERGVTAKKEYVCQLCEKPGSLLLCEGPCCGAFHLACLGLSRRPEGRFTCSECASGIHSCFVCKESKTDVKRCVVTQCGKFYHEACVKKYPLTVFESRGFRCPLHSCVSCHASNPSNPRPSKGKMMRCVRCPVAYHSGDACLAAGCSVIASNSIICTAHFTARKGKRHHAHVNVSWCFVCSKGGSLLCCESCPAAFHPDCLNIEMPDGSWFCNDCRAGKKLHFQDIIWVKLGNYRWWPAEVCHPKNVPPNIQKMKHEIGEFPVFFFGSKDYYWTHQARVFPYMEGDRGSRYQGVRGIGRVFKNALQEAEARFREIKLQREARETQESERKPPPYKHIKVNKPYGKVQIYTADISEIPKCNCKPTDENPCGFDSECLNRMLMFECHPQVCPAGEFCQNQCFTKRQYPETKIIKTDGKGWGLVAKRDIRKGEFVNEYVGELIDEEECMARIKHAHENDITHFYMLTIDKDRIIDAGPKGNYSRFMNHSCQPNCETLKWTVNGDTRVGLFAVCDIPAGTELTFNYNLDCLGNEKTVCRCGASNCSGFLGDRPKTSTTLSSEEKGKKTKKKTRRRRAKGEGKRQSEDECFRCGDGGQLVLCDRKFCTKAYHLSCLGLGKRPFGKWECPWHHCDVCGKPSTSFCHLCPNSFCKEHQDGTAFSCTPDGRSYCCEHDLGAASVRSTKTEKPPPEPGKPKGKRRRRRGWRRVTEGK

[3] = biological target: T3, Zinc finger protein mex-5 (Caenorhabditis elegans, UniProt Q9XUB2); experiment: MEX-5/TCR-2 RNA interaction inhibitors, dose response, biochemical, C. elegans, fluorescence polarization (AID 1960)
T3 sequence (Q9XUB2 whole entry): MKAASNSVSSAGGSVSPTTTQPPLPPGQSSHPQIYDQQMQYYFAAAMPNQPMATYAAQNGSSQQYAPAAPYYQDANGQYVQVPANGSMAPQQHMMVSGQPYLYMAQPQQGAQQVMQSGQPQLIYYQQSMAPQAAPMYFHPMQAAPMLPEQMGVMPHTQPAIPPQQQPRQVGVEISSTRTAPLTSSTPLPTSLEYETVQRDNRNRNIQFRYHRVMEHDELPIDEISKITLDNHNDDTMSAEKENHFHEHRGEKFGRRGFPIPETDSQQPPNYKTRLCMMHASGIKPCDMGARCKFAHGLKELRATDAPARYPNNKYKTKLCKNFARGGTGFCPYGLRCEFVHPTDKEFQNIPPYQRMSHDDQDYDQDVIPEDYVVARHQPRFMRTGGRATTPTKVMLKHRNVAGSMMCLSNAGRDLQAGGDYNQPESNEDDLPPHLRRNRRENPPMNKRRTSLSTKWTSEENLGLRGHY

[4] = biological target: E3 ubiquitin-protein ligase Mdm2 (Homo sapiens, UniProt Q00987); experiment: enhancers of MDM2-luciferase reporter signal, concentration-effect titration, project on inhibitors of MDM2 ubiquitin ligase, cellular assay, luminescent readout, 384-well plate format (AID 1394); type: functional;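 also: MDM2 E3 inhibitors raise luminescence so EC50 is for signal enhancement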
E3 ubiquitin-protein ligase Mdm2, sequence (Q00987 whole entry): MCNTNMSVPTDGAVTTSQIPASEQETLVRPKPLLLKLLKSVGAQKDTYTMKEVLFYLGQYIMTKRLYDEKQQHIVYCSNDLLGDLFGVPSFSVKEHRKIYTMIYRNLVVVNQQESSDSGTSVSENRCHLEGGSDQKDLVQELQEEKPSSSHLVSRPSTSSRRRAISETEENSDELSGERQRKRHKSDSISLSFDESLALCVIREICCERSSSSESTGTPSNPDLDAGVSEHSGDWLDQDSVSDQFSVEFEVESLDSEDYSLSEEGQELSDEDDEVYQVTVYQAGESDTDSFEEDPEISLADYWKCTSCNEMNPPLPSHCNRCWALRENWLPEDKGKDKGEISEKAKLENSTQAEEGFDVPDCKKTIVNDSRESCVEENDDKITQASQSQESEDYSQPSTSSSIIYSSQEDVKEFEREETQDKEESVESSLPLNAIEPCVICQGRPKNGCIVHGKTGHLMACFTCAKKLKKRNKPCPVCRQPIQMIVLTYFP

[5] = Shn3 3'UTR reporter inhibitors, dose response, cell-based, Clone20 osteoblasts, firefly luciferase, cherry-picked (AID 624132); type: functional;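 also: firefly luciferase luminescence from reporter carrying the Shn3 3'UTR in osteoblasts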
[6] = HepG2 cell cytotoxicity, dose response, cytotoxicity control for Shn3 inhibitor project, CellTiter-Glo, cherry-picked (AID 624134); type: functional, cell-based
[7] = control 3'UTR Renilla luciferase suppression, dose response, counter-screen for Shn3 inhibitor project, cell-based, Clone20-Shn3RL, cherry-picked (AID 624133); type: functional
Aminopeptidase N = biological target: T4, Aminopeptidase N (Plasmodium falciparum FcB1/Columbia, UniProt O96935); experiment: P. falciparum M1AAP inhibitors, biochemical, fluorogenic H-Leu-NHMec substrate, 1536-well (AID 1445); parameters: species or system Plasmodium falciparum 3D7, 3D7
T4 sequence (O96935 whole entry): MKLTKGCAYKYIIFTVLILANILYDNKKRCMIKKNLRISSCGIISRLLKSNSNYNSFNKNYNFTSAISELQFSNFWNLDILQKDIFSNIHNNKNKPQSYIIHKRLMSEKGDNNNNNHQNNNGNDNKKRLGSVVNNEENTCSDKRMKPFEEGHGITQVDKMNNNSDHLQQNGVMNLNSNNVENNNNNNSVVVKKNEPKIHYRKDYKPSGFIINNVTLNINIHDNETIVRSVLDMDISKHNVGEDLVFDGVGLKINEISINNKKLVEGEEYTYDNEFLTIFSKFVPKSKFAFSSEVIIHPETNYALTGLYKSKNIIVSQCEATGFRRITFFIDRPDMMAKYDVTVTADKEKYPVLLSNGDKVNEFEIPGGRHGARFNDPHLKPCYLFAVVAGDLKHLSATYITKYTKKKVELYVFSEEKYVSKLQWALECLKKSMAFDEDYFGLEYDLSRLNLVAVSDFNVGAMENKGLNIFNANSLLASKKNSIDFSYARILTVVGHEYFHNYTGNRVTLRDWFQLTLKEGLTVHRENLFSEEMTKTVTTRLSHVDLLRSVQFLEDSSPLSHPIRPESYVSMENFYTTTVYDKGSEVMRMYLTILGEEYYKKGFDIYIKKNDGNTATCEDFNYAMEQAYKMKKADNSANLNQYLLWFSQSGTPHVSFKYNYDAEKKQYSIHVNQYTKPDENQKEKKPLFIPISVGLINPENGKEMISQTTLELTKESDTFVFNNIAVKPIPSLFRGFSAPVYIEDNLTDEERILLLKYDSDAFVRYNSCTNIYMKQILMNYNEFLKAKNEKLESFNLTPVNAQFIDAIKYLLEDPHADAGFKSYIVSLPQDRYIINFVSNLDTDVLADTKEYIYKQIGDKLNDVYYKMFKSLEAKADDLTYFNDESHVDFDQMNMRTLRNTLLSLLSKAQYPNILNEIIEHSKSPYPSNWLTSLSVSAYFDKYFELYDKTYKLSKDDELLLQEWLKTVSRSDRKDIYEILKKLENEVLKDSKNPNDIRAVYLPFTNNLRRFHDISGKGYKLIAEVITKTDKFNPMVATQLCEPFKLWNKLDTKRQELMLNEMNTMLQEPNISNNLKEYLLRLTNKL

Streptokinase A = biological target: T5, Streptokinase A (Streptococcus pyogenes serotype M1, UniProt P10520); experiment: S. pyogenes streptokinase expression inhibitors, potency, dose response, plasminogen activation absorbance, OD405 (AID 1914); type: functional, Streptococcus pyogenes M1 GAS;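 also: secreted streptokinase activity via plasminogen activation per viability signal from cell pellet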
T5 sequence (P10520 whole entry): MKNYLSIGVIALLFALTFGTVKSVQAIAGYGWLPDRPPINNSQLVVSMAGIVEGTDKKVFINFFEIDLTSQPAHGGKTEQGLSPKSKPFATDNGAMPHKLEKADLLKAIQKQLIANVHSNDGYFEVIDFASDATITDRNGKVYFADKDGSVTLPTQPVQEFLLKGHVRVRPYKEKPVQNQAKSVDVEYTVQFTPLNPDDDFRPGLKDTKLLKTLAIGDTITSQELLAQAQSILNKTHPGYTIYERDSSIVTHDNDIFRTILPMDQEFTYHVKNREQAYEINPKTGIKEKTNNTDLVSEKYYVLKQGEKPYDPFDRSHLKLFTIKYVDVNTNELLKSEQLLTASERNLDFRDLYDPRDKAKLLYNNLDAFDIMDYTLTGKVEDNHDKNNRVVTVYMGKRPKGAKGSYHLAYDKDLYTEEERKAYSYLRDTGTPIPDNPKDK

[8] = biological target: T6, Probable nicotinate-nucleotide adenylyltransferase (Staphylococcus aureus (strain N315), UniProt P65502); type: functional, Staphylococcus aureus subsp. aureus N315; conditions: read-out: IC50_Mean;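 as to IC50 Mean: confirmatory dose-response retesting of NadD inhibitor hits first found in an ultra-high-throughput screen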
T6 sequence (P65502 whole entry): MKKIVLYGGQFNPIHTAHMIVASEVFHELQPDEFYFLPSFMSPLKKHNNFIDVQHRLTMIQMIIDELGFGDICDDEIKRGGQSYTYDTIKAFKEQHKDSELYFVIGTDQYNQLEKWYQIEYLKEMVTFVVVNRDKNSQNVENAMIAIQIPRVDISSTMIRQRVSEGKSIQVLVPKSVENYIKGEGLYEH

[9] = biological target: T6, Probable nicotinate-nucleotide adenylyltransferase; type: functional, Staphylococcus aureus subsp. aureus N315
[10] = biological target: Bifunctional protein GlmU (Mycobacterium tuberculosis, UniProt P9WMN3); experiment: Inhibitors of Mycobacterial Glucosamine-1-phosphate acetyl transferase (GlmU). Secondary screen.; parameters: species or system Mycobacterium tuberculosis H37Rv
Bifunctional protein GlmU, sequence (P9WMN3 whole entry): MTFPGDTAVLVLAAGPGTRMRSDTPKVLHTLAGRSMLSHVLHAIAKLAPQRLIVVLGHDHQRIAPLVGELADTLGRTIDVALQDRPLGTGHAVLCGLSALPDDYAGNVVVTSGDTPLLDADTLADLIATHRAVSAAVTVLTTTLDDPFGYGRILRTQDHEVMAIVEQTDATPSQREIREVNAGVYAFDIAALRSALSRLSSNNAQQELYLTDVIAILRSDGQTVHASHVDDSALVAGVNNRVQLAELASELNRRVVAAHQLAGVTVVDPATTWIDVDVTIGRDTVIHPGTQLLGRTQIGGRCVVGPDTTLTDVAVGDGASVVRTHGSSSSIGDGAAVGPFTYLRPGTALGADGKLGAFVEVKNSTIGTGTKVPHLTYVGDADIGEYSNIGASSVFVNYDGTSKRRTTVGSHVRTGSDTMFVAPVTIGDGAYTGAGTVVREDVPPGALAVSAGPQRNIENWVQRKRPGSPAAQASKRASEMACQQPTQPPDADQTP

[11] = test system: Streptococcus sp. 'group A'; experiment: growth inhibition of control SK(-) GAS strain, dose response, counter-screen for streptokinase expression inhibitor project, luminescence, kanamycin, BacTiterGlo, confirmation (AID 1900); type: functional, organism-based
Streptococcus = experiment: Group A Streptococcus viability loss, dose response, counter-screen for streptokinase expression inhibitor project, luminescence, BacTiterGlo (AID 1915); type: functional, organism-based;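 also: potency for reduction of bacterial viability or growth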
[12] = biological target: Induced myeloid leukemia cell differentiation protein Mcl-1 (Homo sapiens, UniProt Q07820); type: functional
Induced myeloid leukemia cell differentiation protein Mcl-1, sequence (Q07820 whole entry): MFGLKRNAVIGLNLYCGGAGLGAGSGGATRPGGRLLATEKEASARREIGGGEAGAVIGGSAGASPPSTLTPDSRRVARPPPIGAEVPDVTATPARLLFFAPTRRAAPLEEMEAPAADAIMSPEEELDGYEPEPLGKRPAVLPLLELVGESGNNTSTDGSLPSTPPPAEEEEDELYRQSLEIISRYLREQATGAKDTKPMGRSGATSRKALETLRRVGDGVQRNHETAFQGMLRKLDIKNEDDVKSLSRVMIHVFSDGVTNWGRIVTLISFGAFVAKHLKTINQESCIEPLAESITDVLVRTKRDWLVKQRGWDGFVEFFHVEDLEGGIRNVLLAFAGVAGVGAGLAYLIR

[13] = Glucagon-like peptide 1 release potency, NCI-H716 cell line, dose-response, half-maximal inhibitory concentration (AID 1117344); type: functional, cell-based

Protein Tat, sequence (P04608 whole entry, the tested form may be a part): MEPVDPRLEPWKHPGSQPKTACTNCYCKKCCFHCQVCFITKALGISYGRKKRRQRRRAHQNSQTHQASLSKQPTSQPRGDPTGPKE

For `O=C(c1coc(=O)c(Br)c1)N1CCCc2ccccc21`, the IC50 (Protein Tat) was 4.84 µM (inconclusive), the EC50 [1] was > 300 µM (not active) and the AC50 [2] was 12.2 µM (active). For the same compound, the EC50 [3] was > 300 µM (not active).

In the case of `Cc1cc(C)nc(S/C=C/C(=O)c2ccccc2)n1`, the EC50 [4] is reported as 1.32 µM (active), the AC50 [5] is reported as 1.72 µM (active) and the AC50 [6] is reported as 42.4 µM (active). The AC50 [7] was 9.3 µM (active).

In the case of `COc1ccc(C2C(C(=O)N3CCCCC3)CCC(=O)N2c2cc(OC)c(OC)c(OC)c2)cc1` (stereo not drawn), the EC50 [4] is reported as 47.1 µM (not active).

With `O=C(N/N=C/c1ccc(-c2ccc(Cl)c(C(=O)O)c2)o1)c1cc2c(ccc3ccccc32)o1` the IC50 (Aminopeptidase N) was 9.45 µM (active), the EC50 (Streptokinase A) was > 150 µM (not active) and the IC50 [8] was 10.7 µM (active). The IC50 [9] was 3.91 µM (active), the IC50 [10] was 58.8 µM (active) and the EC50 [11] was 3.13 µM (active). For the same compound, the EC50 (Streptococcus) was 66.6 µM (inconclusive) and the IC50 [12] was 1.55 µM (active).

In the case of `Cc1ccc(C(=O)Nc2ccc(S(=O)(=O)O)c3cc(S(=O)(=O)O)cc(S(=O)(=O)O)c23)cc1NC(=O)c1cccc(NC(=O)Nc2cccc(C(=O)Nc3cc(C(=O)Nc4ccc(S(=O)(=O)O)c5cc(S(=O)(=O)O)cc(S(=O)(=O)O)c45)ccc3C)c2)c1` [SURAMIN], the IC50 [13] is reported as > 40 µM (inactive).
